According to PubChem BioAssay (NCI):
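1) Cells in 96-well plates. 2) Compound, 48 h, 5 concentrations. 3) Linear interpolation between surrounding doses. 4) Unreached endpoint = highest concentration. GI50 = concentration required for 50% inhibition of growth. TGI: concentration producing complete growth inhibition.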

Columns and labels:
Test in all cases: inhibition of tumour cell growth, NCI panel, 48 h
HS 578T breast = test system: HS 578T breast
PC-3 prostate = test system: PC-3 prostate
HOP-62 NSCLC = test system: HOP-62 NSCLC
HCT-15 colon = test system: HCT-15 colon
UO-31 renal = test system: UO-31 renal
OVCAR-4 ovarian = test system: OVCAR-4 ovarian
SF-268 CNS = test system: SF-268 CNS
MDA-MB-435 = test system: MDA-MB-435
SNB-19 CNS = test system: SNB-19 CNS
OVCAR-5 ovarian = test system: OVCAR-5 ovarian
MALME-3M melanoma = test system: MALME-3M melanoma
LOX IMVI melanoma = test system: LOX IMVI melanoma
CCRF-CEM leukemia = test system: CCRF-CEM leukemia
HOP-92 NSCLC = test system: HOP-92 NSCLC
SR leukemia = test system: SR leukemia
SNB-75 CNS = test system: SNB-75 CNS
SF-295 CNS = test system: SF-295 CNS
NCI-H522 lung = test system: NCI-H522 lung
M14 melanoma = test system: M14 melanoma
RXF 393 renal = test system: RXF 393 renal
SW-620 colon = test system: SW-620 colon
EKVX NSCLC = test system: EKVX NSCLC
MDA-MB-231 breast = test system: MDA-MB-231 breast
A498 renal = test system: A498 renal
U251 CNS = test system: U251 CNS
SK-MEL-2 melanoma = test system: SK-MEL-2 melanoma
HCC-2998 colon = test system: HCC-2998 colon
OVCAR-3 ovarian = test system: OVCAR-3 ovarian
786-0 renal = test system: 786-0 renal
SK-MEL-5 melanoma = test system: SK-MEL-5 melanoma
HL-60(TB) leukemia = test system: HL-60(TB) leukemia
UACC-257 melanoma = test system: UACC-257 melanoma
NCI/ADR-RES ovarian = test system: NCI/ADR-RES ovarian
NCI-H23 lung = test system: NCI-H23 lung
TK-10 renal = test system: TK-10 renal
MCF7 breast = test system: MCF7 breast
KM12 colon = test system: KM12 colon
HCT-116 colon = test system: HCT-116 colon
CAKI-1 renal = test system: CAKI-1 renal
COLO 205 colon = test system: COLO 205 colon
T-47D breast = test system: T-47D breast
NCI-H226 lung = test system: NCI-H226 lung
UACC-62 melanoma = test system: UACC-62 melanoma
SN12C renal = test system: SN12C renal
BT-549 breast = test system: BT-549 breast
DU-145 prostate = test system: DU-145 prostate
A549 NSCLC = test system: A549 NSCLC
NCI-H460 lung = test system: NCI-H460 lung
HT29 colon = test system: HT29 colon
SK-OV-3 ovarian = test system: SK-OV-3 ovarian
ACHN renal = test system: ACHN renal
OVCAR-8 ovarian = test system: OVCAR-8 ovarian
SF-539 CNS = test system: SF-539 CNS
RPMI-8226 leukemia = test system: RPMI-8226 leukemia
SK-MEL-28 melanoma = test system: SK-MEL-28 melanoma
K-562 leukemia = test system: K-562 leukemia
MOLT-4 leukemia = test system: MOLT-4 leukemia
IGROV1 ovarian = test system: IGROV1 ovarian

Structure (SMILES): CCN(CC)CCCC(C)Nc1c2ccc(Cl)cc2nc2ccc(O)cc12 (stereo unspecified)
- GI50 (HS 578T breast): 1.68 µM
- TGI (HS 578T breast): 5.55 µM
- GI50 (PC-3 prostate): 3.58 µM
- TGI (PC-3 prostate): 18.5 µM
- GI50 (HOP-62 NSCLC): 1.49 µM
- TGI (HOP-62 NSCLC): 5.32 µM
- GI50 (HCT-15 colon): 2.98 µM
- TGI (HCT-15 colon): 11 µM
- GI50 (UO-31 renal): 1.18 µM
- TGI (UO-31 renal): 2.65 µM
- GI50 (OVCAR-4 ovarian): 1.88 µM
- TGI (OVCAR-4 ovarian): 4.66 µM
- GI50 (SF-268 CNS): 2.04 µM
- TGI (SF-268 CNS): 11.3 µM
- GI50 (MDA-MB-435): 1.77 µM
- TGI (MDA-MB-435): 3.32 µM
- GI50 (SNB-19 CNS): 3.37 µM
- TGI (SNB-19 CNS): 16.3 µM
- GI50 (OVCAR-5 ovarian): 2.21 µM
- TGI (OVCAR-5 ovarian): 7.78 µM
- GI50 (MALME-3M melanoma): 1.42 µM
- TGI (MALME-3M melanoma): 2.87 µM
- GI50 (LOX IMVI melanoma): 1.6 µM
- TGI (LOX IMVI melanoma): 3.22 µM
- GI50 (CCRF-CEM leukemia): 3.48 µM
- TGI (CCRF-CEM leukemia): 28.9 µM
- GI50 (HOP-92 NSCLC): 2.05 µM
- TGI (HOP-92 NSCLC): 12 µM
- GI50 (SR leukemia): 2.07 µM
- TGI (SR leukemia): 7.11 µM
- GI50 (SNB-75 CNS): 1.62 µM
- TGI (SNB-75 CNS): 3.86 µM
- GI50 (SF-295 CNS): 1.73 µM
- TGI (SF-295 CNS): 3.76 µM
- GI50 (NCI-H522 lung): 1.28 µM
- TGI (NCI-H522 lung): 3.71 µM
- GI50 (M14 melanoma): 1.56 µM
- TGI (M14 melanoma): 2.99 µM
- GI50 (RXF 393 renal): 1.61 µM
- TGI (RXF 393 renal): 4.27 µM
- GI50 (SW-620 colon): 1.16 µM
- TGI (SW-620 colon): 4.13 µM
- GI50 (EKVX NSCLC): 2.94 µM
- TGI (EKVX NSCLC): 11.6 µM
- GI50 (MDA-MB-231 breast): 2 µM
- TGI (MDA-MB-231 breast): 5.39 µM
- GI50 (A498 renal): 0.457 µM
- TGI (A498 renal): 18.2 µM
- GI50 (U251 CNS): 2.49 µM
- TGI (U251 CNS): 11.4 µM
- GI50 (SK-MEL-2 melanoma): 4.78 µM
- TGI (SK-MEL-2 melanoma): 19.9 µM
- GI50 (HCC-2998 colon): 2.44 µM
- TGI (HCC-2998 colon): 6.97 µM
- GI50 (OVCAR-3 ovarian): 2.05 µM
- TGI (OVCAR-3 ovarian): 5.93 µM
- GI50 (786-0 renal): 2.77 µM
- TGI (786-0 renal): 11.9 µM
- GI50 (SK-MEL-5 melanoma): 1.73 µM
- TGI (SK-MEL-5 melanoma): 3.12 µM
- GI50 (HL-60(TB) leukemia): 2.06 µM
- TGI (HL-60(TB) leukemia): 6.25 µM
- GI50 (UACC-257 melanoma): 1.7 µM
- TGI (UACC-257 melanoma): 3.31 µM
- GI50 (NCI/ADR-RES ovarian): 11 µM
- TGI (NCI/ADR-RES ovarian): 26.4 µM
- GI50 (NCI-H23 lung): 3.18 µM
- TGI (NCI-H23 lung): 13.6 µM
- GI50 (TK-10 renal): 1.74 µM
- TGI (TK-10 renal): 3.91 µM
- GI50 (MCF7 breast): 1.4 µM
- TGI (MCF7 breast): 5.48 µM
- GI50 (KM12 colon): 2.39 µM
- TGI (KM12 colon): 10.5 µM
- GI50 (HCT-116 colon): 1.13 µM
- TGI (HCT-116 colon): 3.08 µM
- GI50 (CAKI-1 renal): 2.25 µM
- TGI (CAKI-1 renal): 6.1 µM
- GI50 (COLO 205 colon): 1.17 µM
- TGI (COLO 205 colon): 2.63 µM
- GI50 (T-47D breast): 3 µM
- TGI (T-47D breast): 11.6 µM
- GI50 (NCI-H226 lung): 2.53 µM
- TGI (NCI-H226 lung): 8.99 µM
- GI50 (UACC-62 melanoma): 1.89 µM
- TGI (UACC-62 melanoma): 4.02 µM
- GI50 (SN12C renal): 2.59 µM
- TGI (SN12C renal): 16.6 µM
- GI50 (BT-549 breast): 5.38 µM
- TGI (BT-549 breast): 18.3 µM
- GI50 (DU-145 prostate): 2.26 µM
- TGI (DU-145 prostate): 8.39 µM
- GI50 (A549 NSCLC): 1.47 µM
- TGI (A549 NSCLC): 3.67 µM
- GI50 (NCI-H460 lung): 1.38 µM
- TGI (NCI-H460 lung): 3.84 µM
- GI50 (HT29 colon): 1.22 µM
- TGI (HT29 colon): 5.39 µM
- GI50 (SK-OV-3 ovarian): 3.12 µM
- TGI (SK-OV-3 ovarian): 16 µM
- GI50 (ACHN renal): 1.17 µM
- TGI (ACHN renal): 2.81 µM
- GI50 (OVCAR-8 ovarian): 1.73 µM
- TGI (OVCAR-8 ovarian): 11.7 µM
- GI50 (SF-539 CNS): 1.63 µM
- TGI (SF-539 CNS): 3.14 µM
- GI50 (RPMI-8226 leukemia): 2.4 µM
- TGI (RPMI-8226 leukemia): 6.76 µM
- GI50 (SK-MEL-28 melanoma): 1.6 µM
- TGI (SK-MEL-28 melanoma): 2.98 µM
- GI50 (K-562 leukemia): 2.22 µM
- TGI (K-562 leukemia): 8.94 µM
- GI50 (MOLT-4 leukemia): 1.31 µM
- TGI (MOLT-4 leukemia): 13.6 µM

Structure (SMILES): CCCCC(=O)c1ccc2ccccc2c1O
- TGI (HS 578T breast): > 100 µM
- TGI (PC-3 prostate): > 100 µM
- TGI (HOP-62 NSCLC): > 100 µM
- TGI (HCT-15 colon): > 100 µM
- TGI (UO-31 renal): > 100 µM
- TGI (OVCAR-4 ovarian): > 100 µM
- TGI (SF-268 CNS): > 100 µM
- TGI (MDA-MB-435): > 100 µM
- TGI (SNB-19 CNS): > 100 µM
- TGI (LOX IMVI melanoma): > 100 µM
- TGI (CCRF-CEM leukemia): > 100 µM
- TGI (HOP-92 NSCLC): > 100 µM
- TGI (SR leukemia): > 100 µM
- TGI (SNB-75 CNS): > 100 µM
- TGI (SF-295 CNS): > 100 µM
- TGI (M14 melanoma): > 100 µM
- TGI (RXF 393 renal): > 100 µM
- TGI (SW-620 colon): > 100 µM
- TGI (EKVX NSCLC): > 100 µM
- TGI (MDA-MB-231 breast): > 100 µM
- TGI (A498 renal): > 100 µM
- TGI (U251 CNS): > 100 µM
- TGI (SK-MEL-2 melanoma): > 100 µM
- TGI (HCC-2998 colon): > 100 µM
- TGI (786-0 renal): > 100 µM
- TGI (SK-MEL-5 melanoma): > 100 µM
- TGI (HL-60(TB) leukemia): > 100 µM
- TGI (UACC-257 melanoma): > 100 µM
- TGI (NCI/ADR-RES ovarian): > 100 µM
- TGI (NCI-H23 lung): > 100 µM
- TGI (TK-10 renal): > 100 µM
- TGI (MCF7 breast): > 100 µM
- TGI (KM12 colon): > 100 µM
- TGI (HCT-116 colon): > 100 µM
- TGI (CAKI-1 renal): > 100 µM
- TGI (COLO 205 colon): > 100 µM
- TGI (T-47D breast): > 100 µM
- TGI (NCI-H226 lung): > 100 µM
- TGI (UACC-62 melanoma): > 100 µM
- TGI (IGROV1 ovarian): > 100 µM
- TGI (BT-549 breast): > 100 µM
- TGI (DU-145 prostate): > 100 µM
- TGI (NCI-H460 lung): > 100 µM
- TGI (HT29 colon): > 100 µM
- TGI (SK-OV-3 ovarian): > 100 µM
- TGI (ACHN renal): > 100 µM
- TGI (OVCAR-8 ovarian): > 100 µM
- TGI (SF-539 CNS): > 100 µM
- TGI (RPMI-8226 leukemia): > 100 µM
- TGI (SK-MEL-28 melanoma): > 100 µM
- TGI (K-562 leukemia): > 100 µM
- TGI (MOLT-4 leukemia): > 100 µM
